ChEMBL document CHEMBL1201862, “PubChem BioAssay data set” (2004)
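Values below derive from 48-hour exposures of cells grown in 96-well plates, with endpoints linearly interpolated between the two concentrations bracketing the appropriate inhibition level. GI50 is the concentration that inhibits growth by half.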 The source made the active and inactive calls. Rule as the data show it: active = GI50 up to about 1.1 µM and inactive = higher.

Assays:
Assay in all cases: growth of human tumour cells (NCI), 48 h
M14 = tested on: M14
UACC-62 = tested on: UACC-62
SF-539 = tested on: SF-539
K562 = tested on: K562
EKVX = tested on: EKVX
CCRF-CEM = tested on: CCRF-CEM
OVCAR-4 = tested on: OVCAR-4
HCT-116 = tested on: HCT-116
MOLT-4 = tested on: MOLT-4
786-0 = tested on: 786-0
NCI-H522 = tested on: NCI-H522
RXF 393 = tested on: RXF 393
T47D = tested on: T47D
Malme-3M = tested on: Malme-3M
A549 = tested on: A549
TK-10 = tested on: TK-10
SK-MEL-5 = tested on: SK-MEL-5
SF-268 = tested on: SF-268
NCI-H460 = tested on: NCI-H460
BT-549 = tested on: BT-549

SMILES	GI50 (M14)	GI50 (UACC-62)	GI50 (SF-539)	GI50 (K562)	GI50 (EKVX)	GI50 (CCRF-CEM)	GI50 (OVCAR-4)	GI50 (HCT-116)	GI50 (MOLT-4)	GI50 (786-0)	GI50 (NCI-H522)	GI50 (RXF 393)	GI50 (T47D)	GI50 (Malme-3M)	GI50 (A549)	GI50 (TK-10)	GI50 (SK-MEL-5)	GI50 (SF-268)	GI50 (NCI-H460)	GI50 (BT-549)
CN(C)CCNc1ccc2c(=O)n(CCN(C)C)c(=O)n3c4ccc(N)cc4c(=O)c1c23	0.12 µM (active)	0.393 µM (active)	0.0395 µM (active)	< 0.01 µM (active)	0.119 µM (active)	< 0.01 µM (active)	0.0721 µM (active)	< 0.01 µM (active)	< 0.01 µM (active)	< 0.01 µM (active)	< 0.01 µM (active)	0.0769 µM (active)	0.207 µM (active)	0.116 µM (active)	< 0.01 µM (active)	0.318 µM (active)	0.194 µM (active)	< 0.0272 µM (active)	< 0.01 µM (active)	0.407 µM (active)
O=C1NC(=O)C(Cc2ccccc2)(c2cccnc2)N1 (stereo not given)	> 100 µM (inactive)	> 100 µM (inactive)	> 100 µM (inactive)	> 100 µM (inactive)	> 100 µM (inactive)	> 100 µM (inactive)	> 100 µM (inactive)	> 100 µM (inactive)	> 100 µM (inactive)	> 100 µM (inactive)	> 100 µM (inactive)	> 100 µM (inactive)	> 100 µM (inactive)	> 100 µM (inactive)	> 100 µM (inactive)	> 100 µM (inactive)	> 100 µM (inactive)	> 100 µM (inactive)	> 100 µM (inactive)	> 100 µM (inactive)
CCN(Cc1cc(Cl)cc(C)c1O)Cc1c(O)ccc2ccccc12	18.4 µM (inactive)	15.7 µM (inactive)	13.3 µM (inactive)	19.1 µM (inactive)	17.3 µM (inactive)	10.5 µM (inactive)	17.1 µM (inactive)	16.7 µM (inactive)	5.36 µM (inactive)	16.8 µM (inactive)	11.2 µM (inactive)	16.4 µM (inactive)	16.6 µM (inactive)	14.5 µM (inactive)	18.8 µM (inactive)	17.1 µM (inactive)	14.9 µM (inactive)	18.2 µM (inactive)	18.2 µM (inactive)	13.3 µM (inactive)
NS(=O)(=O)c1ccc(Nc2c3ccccc3nc3c(C(=O)NCCO)cccc23)cc1	0.182 µM (active)	0.135 µM (active)	0.131 µM (active)	0.13 µM (active)	0.251 µM (active)	0.0335 µM (active)	0.195 µM (active)	0.149 µM (active)	0.0241 µM (active)	0.145 µM (active)	0.127 µM (active)	0.0857 µM (active)	0.03 µM (active)	0.13 µM (active)	0.178 µM (active)	0.27 µM (active)	0.0853 µM (active)	0.141 µM (active)	0.0439 µM (active)	0.145 µM (active)
O=C1N=C2SC=C(NC(=S)Nc3ccccc3)N2NC12c1ccccc1-c1ccccc12	> 10 µM (inactive)	> 10 µM (inactive)	> 10 µM (inactive)	> 10 µM (inactive)	9.25 µM (inactive)	> 10 µM (inactive)	> 10 µM (inactive)	> 10 µM (inactive)	> 10 µM (inactive)	> 10 µM (inactive)	> 10 µM (inactive)	> 10 µM (inactive)	5.7 µM (inactive)	> 10 µM (inactive)	> 10 µM (inactive)	> 10 µM (inactive)	> 10 µM (inactive)	> 10 µM (inactive)	> 10 µM (inactive)	> 10 µM (inactive)
COC(=O)/C=C1/CCC(C)(C(=O)NS(=O)(=O)c2ccc(C)cc2)C1(C)C (stereo not given)	> 100 µM (inactive)	> 100 µM (inactive)	> 100 µM (inactive)	> 100 µM (inactive)	> 100 µM (inactive)	> 100 µM (inactive)	> 100 µM (inactive)	> 100 µM (inactive)	> 100 µM (inactive)	> 100 µM (inactive)	> 100 µM (inactive)	> 100 µM (inactive)	> 100 µM (inactive)	> 100 µM (inactive)	> 100 µM (inactive)	> 100 µM (inactive)	> 100 µM (inactive)	> 100 µM (inactive)	> 100 µM (inactive)	> 100 µM (inactive)
CSc1c(C(=O)Nc2ccccc2)c(N)n(N)c(=O)c1C#N	> 100 µM (inactive)	> 100 µM (inactive)	> 100 µM (inactive)	> 100 µM (inactive)	> 100 µM (inactive)	> 100 µM (inactive)	> 100 µM (inactive)	> 100 µM (inactive)	> 100 µM (inactive)	> 100 µM (inactive)	64 µM (inactive)	> 100 µM (inactive)	> 100 µM (inactive)	> 100 µM (inactive)	> 100 µM (inactive)	> 100 µM (inactive)	> 100 µM (inactive)	> 100 µM (inactive)	> 100 µM (inactive)	> 100 µM (inactive)
COC(=O)Cc1ccc2c(cnn2-c2ccccc2)c1OC	> 10 µM (inactive)	> 10 µM (inactive)	> 10 µM (inactive)	> 10 µM (inactive)	9.75 µM (inactive)	> 10 µM (inactive)	> 10 µM (inactive)	> 10 µM (inactive)	> 10 µM (inactive)	> 10 µM (inactive)	> 10 µM (inactive)	> 10 µM (inactive)	> 10 µM (inactive)	> 10 µM (inactive)	> 10 µM (inactive)	> 10 µM (inactive)	> 10 µM (inactive)	> 10 µM (inactive)	> 10 µM (inactive)	> 10 µM (inactive)
CC(=O)Oc1ccc2c(c1)[nH]c1c3ccc(OC(C)=O)cc3oc(=O)c21	30.5 µM (inactive)	28.1 µM (inactive)	29.9 µM (inactive)	26.5 µM (inactive)	34.7 µM (inactive)	19.3 µM (inactive)	42.4 µM (inactive)	23.3 µM (inactive)	14.2 µM (inactive)	48 µM (inactive)	25.5 µM (inactive)	26.7 µM (inactive)	20.4 µM (inactive)	32.8 µM (inactive)	56.9 µM (inactive)	49.9 µM (inactive)	15.3 µM (inactive)	26.9 µM (inactive)	22.6 µM (inactive)	23.9 µM (inactive)
Cc1cc2c(cc1Cl)SC(NN(C)C)=NS2(=O)=O	> 10 µM (inactive)	> 10 µM (inactive)	> 10 µM (inactive)	> 10 µM (inactive)	> 10 µM (inactive)	> 10 µM (inactive)	> 10 µM (inactive)	> 10 µM (inactive)	> 10 µM (inactive)	> 10 µM (inactive)	> 10 µM (inactive)	> 10 µM (inactive)	> 10 µM (inactive)	> 10 µM (inactive)	> 10 µM (inactive)	> 10 µM (inactive)	> 10 µM (inactive)	> 10 µM (inactive)	> 10 µM (inactive)	> 10 µM (inactive)
C[N+](C)(C)C(C1=CCCC1=O)c1ccccc1 (stereo not given)	> 100 µM (inactive)	18.3 µM (inactive)	54.5 µM (inactive)	32.4 µM (inactive)	> 100 µM (inactive)	12.5 µM (inactive)	80.7 µM (inactive)	16.4 µM (inactive)	24.1 µM (inactive)	19.7 µM (inactive)	18.7 µM (inactive)	21 µM (inactive)	43.8 µM (inactive)	19.2 µM (inactive)	> 100 µM (inactive)	48.5 µM (inactive)	> 100 µM (inactive)	18.6 µM (inactive)	28.4 µM (inactive)	37.2 µM (inactive)
CCCCCCC(C)c1ccc2c(c1)C(=O)c1nc3ccncc3c(=O)n1-2 (stereo not given)	2.94 µM (inactive)	2.29 µM (inactive)	4.44 µM (inactive)	0.419 µM (active)	4.25 µM (inactive)	0.836 µM (active)	1.66 µM (inactive)	2.5 µM (inactive)	0.661 µM (active)	2.29 µM (inactive)	1.29 µM (inactive)	4.06 µM (inactive)	3.63 µM (inactive)	0.235 µM (active)	5.65 µM (inactive)	4.86 µM (inactive)	1.42 µM (inactive)	36.2 µM (inactive)	2.07 µM (inactive)	4.21 µM (inactive)
COC(=O)CC[C@@H](C)[C@H]1CC[C@H]2[C@@H]3CC[C@@H]4C[C@H](O)CC[C@]4(C)[C@H]3CC[C@]12C	18.5 µM (inactive)	17.9 µM (inactive)	18.5 µM (inactive)	10.7 µM (inactive)	19.2 µM (inactive)	18.2 µM (inactive)	19 µM (inactive)	17.1 µM (inactive)	14.5 µM (inactive)	18.5 µM (inactive)	18.3 µM (inactive)	18.2 µM (inactive)	19.4 µM (inactive)	17 µM (inactive)	18.5 µM (inactive)	20.3 µM (inactive)	16.9 µM (inactive)	21.6 µM (inactive)	19.3 µM (inactive)	16.2 µM (inactive)
CCN(CC)CCNc1ccc(/N=N/c2ccc(S(N)(=O)=O)cc2)c2ccccc12	3.72 µM (inactive)	8.61 µM (inactive)	3.63 µM (inactive)	3.13 µM (inactive)	19 µM (inactive)	4.51 µM (inactive)	12.9 µM (inactive)	3.72 µM (inactive)	6.25 µM (inactive)	4.62 µM (inactive)	14.9 µM (inactive)	3.61 µM (inactive)	2.55 µM (inactive)	15.7 µM (inactive)	4.99 µM (inactive)	19.1 µM (inactive)	5.06 µM (inactive)	10.1 µM (inactive)	7.4 µM (inactive)	13.6 µM (inactive)
